Experiments:
[1] = patients, repetitive infusions, single dose 3 g/m^2 over three hours, up to eight doses; cited from earlier work
[2] = CEST MRI of drugs in PBS solution (in vitro phantom); format: physicochemical; conditions: for offset of CEST contrast corresponding to NH2 / offset of CEST contrast corresponding to OH: PBS solution, 20 mM, pH 7.4, 37° C., B1=3.6 μT, 3 s
Text: This would of course correspond only to an mM or μM change for the drug and would not be detectable on the large MRI signal of 55 M water molecules (110 M protons). However, for every saturated proton leaving from the solute to water, an intact proton relocates from water to the solute, a process so-called chemical or proton exchange, and subsequently gets saturated again, which will be transferred to the water again in the next exchange. If the exchange rate is fast enough, this continuous process can lead to great signal amplification of the NMR signal carried by the agent, even up to thousands of times (depending on the exchange rate). This can then cause a several percentage decrease in the water signal, allowing imaging of the low-concentration agent with the sensitivity of the water signal. The percentage of water signal decrease, or CEST contrast, is traditionally described by magnetization transfer ratio asymmetry (MTRasym) defined by MTRasym=(S^−Δω−S^+Δω)/S0, where […] are the MRI signal with RF irradiation at particular offsets +Δω and −Δω respectively, and So is that acquired without RF saturation (element (d) of FIG. 1). Because having detectable exchangeable protons (at an appropriate rate at an adequate concentration) is a requirement for generating CEST MRI signal, it thus opens the possibility to detect natural biocompatible molecules by their CEST signal, potentially improving the clinical translatability.
Elements (a)-(d) of FIG. 1 show an illustration of CEST contrast (taken from reference [^1] with permission). […] However, this process is repeated continuously, leading to effect amplification of magnitude depending on the exchange rate (ksw). The CEST contrast can be quantified by a NMR spectrum element (b), a z spectrum in element (c) of frequency dependence of normalized saturated water signal Ssat/S0, with S0 the non-saturated signal) or, an MTRasym plot in element (d). Elements (e)-(f) show CEST detection of drugs through their carried exchangeable protons on NH2 (blue) and OH (red) as exemplified by araC (left) and Gem (right) in PBS solution (20 mM, pH 7.4) at 37° C. using a standard CEST MRI method (RF pulse field strength (B1)=3.6 μT and duration =3 s). […] Elements (f)-(g) of FIG. 1 show the CEST contrast of them as quantified by z-spectra and MTRasym plots respectively, showing strong CEST contrast at ˜1 and ˜2 ppm corresponding to OH and NH2 respectively, which appear partially overlapped at pH 7.4 but can be resolved at low saturation power.
Other drugs, including prodrugs and drug modulators, as well as the drug carriers, are intended to be included within the general scope of this invention. Many of them have exchangeable protons such as OH, NH and NH2 (FIG. 1). Thus, in one embodiment, the water exchangeable proton corresponds to at least one of an OH, NH2 or NH group. The water-exchangeable proton can include at least one of an OH, NH2 or NH group. Other antitumor categories and the biochemical drug modulators (a non-toxic agent that can enhance the effect of drugs when used together, but has no effect when used alone) as listed in Table 1 are also intended to be within the scope of the current invention.

[3] = single dose of 800 mg/kg (i.p.); cited from earlier work
[4] = in vivo; cited from earlier work

Compound	cerebellar toxicity [1]	offset of CEST contrast corresponding to NH2 [2]	offset of CEST contrast corresponding to OH [2]	accumulation of gemcitabine in tumor [3]	maximum tolerated dose (MTD) [4]	offset at which the maximum CEST signal could be detected ([2]; at low pH)
Nc1ccn([C@@H]2O[C@H](CO)[C@@H](O)[C@@H]2O)c(=O)n1 [araC, Cytarabine]	no noticeable cerebellar toxicity	~2 ppm	~1 ppm			
Nc1ccn([C@@H]2O[C@H](CO)[C@@H](O)C2(F)F)c(=O)n1 [gemcitabine, Gemcitabine]		~2 ppm	~1 ppm	up to several mM	2200 m^g/m2	3.2 ppm

Source: US20170086736A1, “METHODS AND SYSTEMS USING NON-LABELED ANTIMETABOLITES AND ANALOGS THEREOF AS THERANOSTIC AGENTS” (The Johns Hopkins University, priority 2014, published 2017)
